Results reported in patent US8017557B2, “Benzodioxole derivatives as modulators of proteolytic activity in plants” (Endura S.p.A., priority 2002, dated 2011).

Columns and labels:
[1] = test system: ficin; settings: Wo 25, HEPES pH 7.1, 30° C.
Experimental: Reverse micelles assay of ISO-AOT 50 mM (AOT: twin aerosol (2-ethylhexylsodiumsulfosuccinate in isooctane (ISO)); Wo (H2O/AOT)=25
(§4) The assays were carried out in the reverse-micelles assay dispersed in organic solvent, described by Walde et al. in Eur. J. Biochem., 1988, 173:401-409, and already reported in the literature in kinetic studies of the inhibition of trypsin with natural and synthetic inhibitors. […]
(§5) The enzyme assay on reverse-micelle has been already described in the literature for the enzyme trypsin and was adapted to different enzymes. […] To this solution was added an appropriate volume of substrate CBZ (dissolved in acetonitrile/H2O, 80:20 (v/v) at a concentration of 15 mM) and following further agitation (the solution returned to being transparent), the change in absorbance was measured (Dabs) at 340 nm with a Cary 219 spectrophotometer.
(§6) The experimental data obtained are represented graphically in the form of Dixon-plot (described for example in: “Quantitative Problems in Biochemistry”, E A. Dawes, 5th ed. 1972 Baltimore, The Williams and Wilkins Company), in the FIGS. 1, 2 and 3.

[2] = biological target: bromelain (Ananas comosus, UniProt P14518); experiment: biochemical
Experimental: Reverse micelles assay of ISO-AOT 50 mM (AOT: twin aerosol (2-ethylhexylsodiumsulfosuccinate in isooctane (ISO)); Wo (H2O/AOT)=28
as §4, §5, §6

[3] = test system: endopeptidase activity in cotton leaves; experiment: Radial Diffusion Assay (RDA) of endopeptidase activity in cotton plants; assay type: in vivo, cotton (cv. Sicala V2i); settings: for Endopeptidase activity, cv. V2i Bt PBO: U = trypsin equivalents
Experimental: The […] of the clear zone produced by the plant extracts was compared to a standard curve obtained by a serial dilution of trypsin. A standard solution of trypsin was used to plot a standard curve for each sample plate, thus the endopeptidase activity was expressed as units of trypsin equivalents. For each extract, the amount of soluble proteins in mg was determined by the Biuret method and the enzymatic activity was then expressed as specific activity i.e. Units/mg soluble proteins. Abscissa: time (days); ordinate: trypsin units/mg soluble protein.
(§1) The samples were collected at different development stages of plants, which were: […], 60 and 85 days after sowing. These samples were also analysed for determining the Bt content (as described in example 4). To this aim, the enzymatic activity was tested on crude freeze dried leaf extracts with two different assays: the Radial Diffusion Assay (RDA), in which a protein, such as the bovine gelatine, was used as a substrate to test the endopeptidase activity, and a photometric assay described in the next example, in which DL-BAPA was used as a substrate, to determine a general peptidase activity.
(§2) A powder aliquot, which represents each step of plant growth, of the treated and controls samples was extracted in two steps. The powder sample was extracted with buffer 0.1 M Tris-HCl pH 7.7 (1:20 w/v) using an Ultraturrax blender at 24,000×RPM for 2 min in a ice bath to avoid overheating. […] The clear supernatant was collected and filtrated with Whatman paper no 4. The pellet was further extracted with the same procedure, with the exception that in this case the extraction ratio was 1:10 (w/v). Finally, the supernatants of the two extractions processes were joined and then concentrated 4-5 times by centrifugation at 3,000×g at 15° C. for 2 hours, using suitable concentrators (Amicon Inc. Beverly, Mass.—USA), fitted with a membrane of 10 κD cut off.
(§3) For each extract, the amount of soluble proteins was determined by the Biuret method and the enzymatic activity was then expressed as specific activity i.e. Units/mg soluble proteins.
RDA was performed as described in Santarius, K. and Ryan, C., Anal. Biochem., 1977, 77: 1-9 in Petri dishes containing bovine gelatine as substrate, dispersed in agar gel. Each dish contained 5 wells of which 4 were filled with suitable aliquots of concentrated cotton extracts, whereas one was filled with a bovine β-trypsin as standard solution (0.2 U/ml). The dishes were covered and sealed with a plastic film to avoid evaporation and then incubated at 37° C. for 16 hours.
The enzymatic activity in the protein-agar gel produced a clear radial diffusion zone around each circular wells, due to the bovine gelatine proteolysis against an opaque background.
The trypsin equivalents were calculated by measuring the radii of the clear zones produced by the plant extracts and compared to a standard curve obtained by a serial dilution of trypsin. Each dish contained a standard solution of trypsin that was used to plot a standard curve for each plate, thus the endopeptidase activity was expressed as units of trypsin equivalents.
Each analysis was performed in quadruplicate. […] In table 6 are shown the differences between treated and untreated cotton samples as percentages.

[4] = test system: peptidase activity in cotton plants; experiment: Photometric assay of peptidase activity with DL-BAPA as substrate in cotton plants; assay type: in vivo, cotton (cv. Sicala V2i); settings: for Peptidase activity, PBO treated cv. V2i Bt: DL-BAPA substrate
Experimental: The photometric assay was carried out following the DL-BAPA hydrolysis at 410 nm. One peptidase unit (U) was defined as the amount of the enzyme, which produces one unit of absorbance variation at 410 nm/minute at pH 8.2 and 30° C. For each extract, the amount of soluble proteins in mg was determined by the Biuret method and the enzymatic activity was then expressed as specific activity i.e. Units/mg soluble proteins.
Each analysis was performed in duplicate or in triplicate and the standard deviation for each point is also indicated. Abscissa: time (days); ordinate: trypsin units/mg soluble protein.
as §1, §2, §3
The photometric assay was carried out as described in Erlanger, B. F. et al. Arch. Biochem., 1961, 95: 271-278. In the assay is measured the absorbance variation due to DL-BAPA hydrolysis at 410 nm. The assay was performed mixing directly in the cuvette 20 μl of cotton crude extract with 980 μl of DL-BAPA in buffer 0.1 M Tris-HCl pH 8.2. One peptidase unit was defined as the amount of the enzyme which produces one unit of absorbance variation (410 nm) per minute at pH 8.2 and 30° C.
Each series of analysis was performed in duplicate or triplicate. […] In this figure is shown a maximum of peptidase activity around 60 days of development. […] A statistically significant inhibition is observed during the most part of the plant growing cycle. Finally, in table 7 is shown the specific activities of peptidase of treated and untreated Sicala V2i cotton samples. In this table it is also reported the activity differences in percentage between the treated and untreated samples.

Chain of bromelain (P14518 whole entry, the tested form may be a part): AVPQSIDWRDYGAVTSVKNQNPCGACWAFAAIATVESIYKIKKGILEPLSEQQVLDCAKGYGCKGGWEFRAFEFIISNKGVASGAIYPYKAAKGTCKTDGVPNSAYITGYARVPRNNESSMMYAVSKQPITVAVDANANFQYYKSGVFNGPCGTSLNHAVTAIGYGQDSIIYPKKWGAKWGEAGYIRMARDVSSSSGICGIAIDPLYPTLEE

## CCCCOCCOCCOCc1cc2c(cc1CCC)OCO2 [PBO, 5-[[2-(2-Butoxyethoxy)ethoxy]methyl]-6-propyl-1,3-benzodioxole]
[1]; read-out: IC50 of PBO on ficin, evaluated from Dixon plot
  IC50: 800 µM
[1]; read-out: inhibition constant (KI) of PBO on the enzyme ficin, Dixon plot, substrate CBZ 1.5×10^−4 M and 6×10^−5 M
  Ki: 450 µM
[2]
  IC50: 400 µM
  Ki: 100 µM
[3]; 4 days after sowing
  Difference % Treated minus untreated (endopeptidase, RDA): 9.15%
  Endopeptidase activity, cv. V2i Bt PBO: 5.90 U/mg protein
[3]; 35 days after sowing
  Difference % Treated minus untreated (endopeptidase, RDA): −5.35%
  Endopeptidase activity, cv. V2i Bt PBO: 8.04 U/mg protein
[3]; 60 days after sowing
  Difference % Treated minus untreated (endopeptidase, RDA): −39.31%
  Endopeptidase activity, cv. V2i Bt PBO: 4.07 U/mg protein
[3]; 85 days after sowing
  Difference % Treated minus untreated (endopeptidase, RDA): −16.42%
  Endopeptidase activity, cv. V2i Bt PBO: 4.14 U/mg protein
[4]; 4 days after sowing
  Difference % Treated minus untreated (peptidase, DL-BAPA): 4.99%
  Peptidase activity, PBO treated cv. V2i Bt: 5.21 U/mg of soluble protein × 10^−2
[4]; 35 days after sowing
  Difference % Treated minus untreated (peptidase, DL-BAPA): −23.54%
  Peptidase activity, PBO treated cv. V2i Bt: 9.43 U/mg of soluble protein × 10^−2
[4]; 60 days after sowing
  Difference % Treated minus untreated (peptidase, DL-BAPA): −25.55%
  Peptidase activity, PBO treated cv. V2i Bt: 13.62 U/mg of soluble protein × 10^−2
[4]; 85 days after sowing
  Difference % Treated minus untreated (peptidase, DL-BAPA): 18.68%
  Peptidase activity, PBO treated cv. V2i Bt: 12.42 U/mg of soluble protein × 10^−2
